Data published in ChEMBL document CHEMBL4483862, “Open-source discovery of chemical leads for next-generation chemoprotective antimalarials” (2018).
pIC50: −log10 of the molar value.

Test system: Plasmodium berghei
Test: Luciferase/luciferin-expressing antifolate-resistant parasites were used to infect a culture of HepG2 cells that were pre-incubated with compounds. Infected hepatocytes emit light due to the luciferase reaction. Assay results are presented as the percent inhibition of light emission compared to control. […]
Type: functional
Settings: sporozoite; for IC90: read-out: LUCIFERASE INFECTION ASSAY - IC90
[1] = read-out: LUCIFERASE INFECTION ASSAY - IC50

Structure (SMILES) | IC90 [µM] | pIC50 [1] | other results
CCCCCCCCCONC(=O)Nc1ccc([N+](=O)[O-])cc1 | > 10 |  | pIC50 (FFLUC_HILL_SLOPE 17.3, FFLUC_R_SQUARED 0.0693, PBLUC_HILL_SLOPE 3, PBLUC_R_SQUARED 0.451, read-out: LUCIFERASE INFECTION ASSAY - IC50): 5.20
Cc1ccc(Cl)cc1N1C(=O)C=CC1=O | > 14.9 |  | pIC50 (FFLUC_HILL_SLOPE 1.79, FFLUC_R_SQUARED 0.452, HEPG2TOX_HILL_SLOPE 16.8, HEPG2TOX_R_SQUARED 0.904, PBLUC_HILL_SLOPE 2.51, PBLUC_R_SQUARED 0.543, read-out: LUCIFERASE INFECTION ASSAY - IC50): 5.17
CCCOc1ccc(/C=N/NC(=S)NCCCN2CCOCC2)c(OCCC)c1 | > 10 |  | pIC50 (PBLUC_HILL_SLOPE 4.29, PBLUC_R_SQUARED 0.235, read-out: LUCIFERASE INFECTION ASSAY - IC50): 5.09
CC(C)c1cccc(-c2ccc3nnc(-c4ccc5c(c4)NC(=O)CO5)n3c2)c1 | > 10 |  | pIC50 (HEPG2TOX_HILL_SLOPE 7.77, HEPG2TOX_R_SQUARED 0.643, read-out: LUCIFERASE INFECTION ASSAY - IC50): < 5.00
Cc1ccc(-n2c(C)cc(/C=C3\N=C4CCCCCN4C3=O)c2C)c(C)c1 | > 10 | < 5.00 | 
COc1cc(Br)cc(/C=N/NC(=S)NC(C)(C)C)c1O | 6.76 |  | pIC50 (PBLUC_HILL_SLOPE 63.8, PBLUC_R_SQUARED 0.286, read-out: LUCIFERASE INFECTION ASSAY - IC50): 5.19
CNc1nc2cnc(-c3ccc(O)c(OC)c3)cc2n1Cc1ccccc1 | 3.99 | 5.50 | 
O=c1c(-c2ccc(Cl)cc2)c[nH]n1-c1cccc(C(F)(F)F)c1 | > 9.74 |  | pIC50 (FFLUC_HILL_SLOPE 17.4, FFLUC_R_SQUARED 0.432, HEPG2TOX_HILL_SLOPE 8.27, HEPG2TOX_R_SQUARED 0.828, PBLUC_HILL_SLOPE 3.62, PBLUC_R_SQUARED 0.841, read-out: LUCIFERASE INFECTION ASSAY - IC50): 5.25
CNc1nc2cnc(Nc3cc(C(F)(F)F)ccc3F)cc2n1-c1ccccc1 | > 10 |  | pIC50 (PBLUC_HILL_SLOPE 2.9, PBLUC_R_SQUARED 0.508, read-out: LUCIFERASE INFECTION ASSAY - IC50): 5.21
c1cncc(-c2nc(NCc3ccnc(N4CCCC4)c3)c3ccccc3n2)c1 | > 10 |  | pIC50 (HEPG2TOX_HILL_SLOPE 5.98, HEPG2TOX_R_SQUARED 0.222, PBLUC_HILL_SLOPE 14.9, PBLUC_R_SQUARED 0.594, read-out: LUCIFERASE INFECTION ASSAY - IC50): 5.03
CNc1nc2cnc(Nc3cccc(N(C)C)c3)cc2n1-c1cccc(C(F)(F)F)c1 | > 10 | < 5.00 | 
O=C(NC1CCN(c2ccc(S(=O)(=O)C(F)(F)F)cc2)CC1)C1CC1 | 2.59 |  | pIC50 (HEPG2TOX_HILL_SLOPE 1.52, HEPG2TOX_R_SQUARED 0.775, PBLUC_HILL_SLOPE 1.87, PBLUC_R_SQUARED 0.699, read-out: LUCIFERASE INFECTION ASSAY - IC50): 6.10
CC(C)CNC(=O)c1cc(Br)ccc1O | > 10 | < 5.00 | 
Cc1ccc(OCC(O)CN2CCc3ccccc3C2)c(C)c1 (stereo not drawn) | > 9.49 | < 5.02 | 
O=C(CSc1ncnc2sc(-c3ccccc3)cc12)NCc1ccc(F)cc1 | > 10 |  | pIC50 (HEPG2TOX_HILL_SLOPE 9.03, HEPG2TOX_R_SQUARED 0.325, PBLUC_HILL_SLOPE 19.9, PBLUC_R_SQUARED 0.0271, read-out: LUCIFERASE INFECTION ASSAY - IC50): 5.01
CNC(=O)c1ccc(CN(CCOc2cccc(F)c2)C2CC2)cc1 | > 10 |  | pIC50 (PBLUC_HILL_SLOPE 4.75, PBLUC_R_SQUARED 0.3, read-out: LUCIFERASE INFECTION ASSAY - IC50): 5.17
Cn1c(SCC(=O)c2ccc(Cl)cc2)nnc1-c1ccc(C(C)(C)C)cc1 | > 8.25 |  | pIC50 (PBLUC_HILL_SLOPE 11.7, PBLUC_R_SQUARED 0.0355, read-out: LUCIFERASE INFECTION ASSAY - IC50): < 5.08
COc1cccc(-c2nc(C(=O)Nc3ccc4nc(C(C)(C)C)[nH]c4c3)cs2)c1OC | 9.22 |  | pIC50 (HEPG2TOX_HILL_SLOPE 10.6, HEPG2TOX_R_SQUARED 0.787, PBLUC_HILL_SLOPE 3.59, PBLUC_R_SQUARED 0.651, read-out: LUCIFERASE INFECTION ASSAY - IC50): 5.30
CN(C)c1cccc(-c2cnc3sc(NCc4cccnc4)nn23)c1 | > 9.42 | < 5.03 | 
Cc1ccc(-n2nnnc2COc2cc(C)ccc2C(C)C)c(C)c1 | > 9.81 |  | pIC50 (PBLUC_HILL_SLOPE 3.14, PBLUC_R_SQUARED 0.65, read-out: LUCIFERASE INFECTION ASSAY - IC50): 5.18
CCc1cccc(CC)c1N=C(S)NC(C)c1ccccc1 (stereo not drawn) | > 10 | < 5.00 | 
O=C(CCN1c2ccccc2Sc2ccccc21)Nc1ccc2ccccc2c1 | > 10 | < 5.00 | 

Structure (SMILES) | IC90 [µM] | pIC50 [1] | other results
O=C(Nc1ccc(OC(F)(F)F)cc1)Nc1ccc2nc(-c3ccsc3)nn2c1 | 9.37 |  | pIC50 (FFLUC_HILL_SLOPE 13.4, FFLUC_R_SQUARED 0.266, PBLUC_HILL_SLOPE 2.61, PBLUC_R_SQUARED 0.893, read-out: LUCIFERASE INFECTION ASSAY - IC50): 5.39
Cc1ccc2nc(NC(=O)COCc3ccccc3)c(C(=O)NC3CCCC3)n2c1 | > 8.12 |  | pIC50 (PBLUC_HILL_SLOPE 14.3, PBLUC_R_SQUARED 0.563, read-out: LUCIFERASE INFECTION ASSAY - IC50): 5.12
CCN(CC)c1ccc(Nc2nc(-c3sc(C)nc3C)cs2)cc1 | > 9.2 | < 5.04 | 
Cc1ccc(-c2cc(C(=O)N(C)Cc3ccc(C(=O)NC4CC4)cc3)on2)cc1 | > 10 | < 5.00 | 
CO/N=C1\CC(C)(C)Cc2c(-c3ccn(S(=O)(=O)c4ccc(Cl)cc4)n3)sc(SC)c21 | > 6.65 |  | pIC50 (FFLUC_HILL_SLOPE 0.891, FFLUC_R_SQUARED 0.151, read-out: LUCIFERASE INFECTION ASSAY - IC50): < 5.18
CCNC(=O)C(C)NC(=O)c1cc(-c2ccccc2)nc2c1cnn2Cc1ccccc1Cl (stereo not drawn) | 0.0487 |  | pIC50 (PBLUC_HILL_SLOPE 3.93, PBLUC_R_SQUARED 0.959, read-out: LUCIFERASE INFECTION ASSAY - IC50): 7.55
CCCCCCCCCCCc1n[nH]c(=S)n1-c1ccccc1C(F)(F)F | > 8.26 |  | pIC50 (FFLUC_HILL_SLOPE 1.62, FFLUC_R_SQUARED 0.783, read-out: LUCIFERASE INFECTION ASSAY - IC50): < 5.08
COc1ccc(C(=O)Nc2cc(Cl)ccc2N2CCCCC2)cc1S(=O)(=O)N(C)OC | > 10 |  | pIC50 (FFLUC_HILL_SLOPE 10.9, FFLUC_R_SQUARED 0.3, PBLUC_HILL_SLOPE 12.4, PBLUC_R_SQUARED 0.0122, read-out: LUCIFERASE INFECTION ASSAY - IC50): < 5.00
Cc1nn(C)c(Cl)c1/C=N/Nc1ccc([N+](=O)[O-])cc1S(=O)(=O)Nc1ccc(Cl)cc1 | > 10 |  | pIC50 (HEPG2TOX_HILL_SLOPE 1.82, HEPG2TOX_R_SQUARED 0.852, PBLUC_HILL_SLOPE 13.6, PBLUC_R_SQUARED 0.455, read-out: LUCIFERASE INFECTION ASSAY - IC50): 5.02
CCc1ccc(-n2c(SC3CCCCC3NS(=O)(=O)c3ccccc3)nc3ccccc3c2=O)cc1 (stereo not drawn) | 4.14 |  | pIC50 (PBLUC_HILL_SLOPE 16.5, PBLUC_R_SQUARED 0.215, read-out: LUCIFERASE INFECTION ASSAY - IC50): 5.44
CCN(CC)S(=O)(=O)c1ccc(N2CCOCC2)c(NC(=O)c2oc3ccccc3c2C)c1 | 9.03 |  | pIC50 (PBLUC_HILL_SLOPE 2.77, PBLUC_R_SQUARED 0.561, read-out: LUCIFERASE INFECTION ASSAY - IC50): 5.39
CCOC(=O)C1(C)CCN1C(=O)c1cc(OC)c(OC)c(OC)c1 (stereo not drawn) | > 9.78 | < 5.01 | 
COc1ccc(NC(=O)c2ccc(-n3cnc4ccccc43)cc2)cc1Cl | > 10 | 5.07 | 
CCOc1ccccc1OCC(=O)Nc1nc(-c2cc(C)n(-c3ccc(F)cc3)c2C)cs1 | > 10 | < 5.00 | 
COc1ccc(NS(=O)(=O)c2cc([N+](=O)[O-])ccc2N/N=C(\C)c2ccc(S(=O)(=O)NCc3ccco3)cc2)cc1 | 4.99 |  | pIC50 (HEPG2TOX_HILL_SLOPE 4.01, HEPG2TOX_R_SQUARED 0.968, PBLUC_HILL_SLOPE 8.16, PBLUC_R_SQUARED 0.206, read-out: LUCIFERASE INFECTION ASSAY - IC50): 5.42
CSc1c(C#N)c(-c2ccc(Cl)cc2)nn1C(=O)c1ccccc1Cl | > 8.5 | < 5.07 | 
Cc1c(-c2cc(-c3ccc(Cl)cc3)nc3ccccc23)oc2ccc(F)cc2c1=O | > 10 | < 5.00 | 
Nc1nccnc1C(=O)NNC(=O)c1cc2c(s1)CCCCCC2 | 3.7 |  | pIC50 (HEPG2TOX_HILL_SLOPE 2.95, HEPG2TOX_R_SQUARED 0.777, PBLUC_HILL_SLOPE 11, PBLUC_R_SQUARED 0.184, read-out: LUCIFERASE INFECTION ASSAY - IC50): 5.52
Cc1nn(-c2ccccc2)nc1C(=O)Nc1nc(CN2CCCCCC2)cs1 | > 10 | < 5.00 | 
COc1cccc(Nc2nccc3[nH]c(-c4cccc(F)c4)cc23)c1 | 2.27 |  | pIC50 (HEPG2TOX_HILL_SLOPE 2.76, HEPG2TOX_R_SQUARED 0.828, PBLUC_HILL_SLOPE 2.74, PBLUC_R_SQUARED 0.773, read-out: LUCIFERASE INFECTION ASSAY - IC50): 5.99
O=c1c2ccccc2cnn1-c1nc2ccccc2s1 | 1.01 | 6.67 | 
CCOC(=O)c1c(C)[nH]c(C(=O)Nc2nc(-c3c(C)cc(C)cc3C)cs2)c1C | 9.66 |  | pIC50 (FFLUC_HILL_SLOPE 12.1, FFLUC_R_SQUARED 0.461, HEPG2TOX_HILL_SLOPE 1.22, HEPG2TOX_R_SQUARED 0.98, PBLUC_HILL_SLOPE 1.25, PBLUC_R_SQUARED 0.783, read-out: LUCIFERASE INFECTION ASSAY - IC50): 5.78
